Results from patent US20200316038A1, “METHODS AND COMPOSITIONS FOR TREATING UREA CYCLE DISORDERS, IN PARTICULAR OTC DEFICIENCY” (CAMP4 THERAPEUTICS CORPORATION, priority 2017, published 2020).
Read-outs that look alike come from different tables or passages of the source.

B1: Anti mullerian hormone: member of the TGF-B gene family (protein, UniProt P03971 452-560, looked up)
Muellerian-inhibiting factor: SAGATAADGPCALRELSVDLRAERSVLIPETYQANNCQGVCGWPQSDRNPRYGNHVVLLLKMQVRGAALARPPCCVPTAYAGKLLISLSEERISAHHVPNMVATECGCR
B2: GDF2 (BMP9): member of BMP family and the TGF-B superfamily (protein, UniProt Q9UK05 320-429, looked up)
Growth/differentiation factor …: SAGAGSHCQKTSLRVNFEDIGWDSWIIAPKEYEAYECKGGCFFPLADDVTPTKHAIVQTLVHLKFPTKVGKACCVPTKLSPISVLYKDDMGVPTLKYHYEGMSVAECGCR
B3: Wnt3a: WNT family secreted signaling protein; FRIZZLED activator (protein, UniProt P56704 19-352, looked up)
Protein Wnt-3a: SYPIWWSLAVGPQYSSLGSQPILCASIPGLVPKQLRFCRNYVEIMPSVAEGIKIGIQECQHQFRGRRWNCTTVHDSLAIFGPVLDKATRESAFVHAIASAGVAFAVTRSCAEGTAAICGCSSRHQGSPGKGWKWGGCSEDIEFGGMVSREFADARENRPDARSAMNRHNNEAGRQAIASHMHLKCKCHGLSGSCEVKTCWWSQPDFRAIGDFLKDKYDSASEMVVEKHRESRGWVETLRPRYTYFKVPTERDLVYYEASPNFCEPNPETGSFGTRDRTCNVSSHGIDGCDLLCCGRGHNARAERRREKCRCVFHWCCYVSCQECTRVYDVHTCK
B4: Nodal: 13 kDa member of the TGF-B superfamily (protein, UniProt Q96S42 238-347, looked up)
Nodal homolog: HHLPDRSQLCRKVKFQVDFNLIGWGSWIIYPKQYNAYRCEGECPNPVGEEFHPTNHAYIQSLLKRYQPHRVPSTCCAPVKTKPLSMLYVDNGRVLLDHHKDMIVEECGCL

What was measured:
OTC [1] = assay: siRNA transfection of primary human hepatocytes, OTC qPCR; type: cell-based; settings: siRNA 10 nM, 48hrs, vs control non-targeting siRNA
Method: Primary human hepatocytes were reversed transfected with 6pmol siRNA using RNAiMAX Reagent (ThermoFisher Cat No13778030) in 24 well format, 1 ul per well (for a final cone of 10 nM). The following morning, the medium was removed and replaced with Modified Maintenance Medium (see above) for an additional 24 hrs. The entire treatment lasted 48hrs, at which point the medium was removed and replaced with RLT Buffer for RNA extraction (Qiagen RNeasy 96 QIAcube HT Kit Cat#74171). siRNAs were obtained from Dharmacon and are a pool of four siRNA duplex all designed to target distinct sites within the specific gene of interest (known as “SMARTpool”). They were tested against the control non-targeting siRNA D-001206-13-05.
Isolated RNA was processed for cDNA synthesis and qPCR as described above. Taqman assay used for OTC measurement: Hs00166892_m1

ARG1 = assay: RNA-seq, ARG1 expression in compound-treated primary human hepatocytes; type: cell-based
CPS1 = assay: RNA-seq, CPS1 expression in compound-treated primary human hepatocytes; type: cell-based
[2] = tested on: multiple urea cycle-related genes; assay: RNA-seq, compounds that modulate multiple urea cycle-related genes; type: cell-based; settings: primary human hepatocytes; for Up-regulated Genes: urea cycle-related genes significantly increased by the compound
OTC [3] = assay: RNA-seq, OTC expression in compound-treated primary human hepatocytes; type: cell-based
SLC25A15 = assay: RNA-seq, SLC25A15 expression in compound-treated primary human hepatocytes; type: cell-based; settings: compounds that significantly increase SLC25A15 expression
HSP90 = settings: cited from earlier work
OTC [4] = assay: OTC expression modulated by compounds (OTC/Geo Mean of HKs, DMSO = 1); type: cell-based, human; settings: OTC expression; compound at 10 uM final concentration
ASS1 = assay: RNA-seq, ASS1 expression in compound-treated primary human hepatocytes; type: cell-based
calcium channel = calcium channel blocker; cited from earlier work
ASL = assay: RNA-seq, ASL expression in compound-treated primary human hepatocytes; type: cell-based
[5] = RNA-seq, primary human hepatocytes, compounds that significantly increase ARG1 expression
[6] = RNA-seq, primary human hepatocytes, compounds that significantly increase NAGS expression
[7] = RNA-seq, primary human hepatocytes, compounds that significantly increase ASL expression

Row | Molecule | ARG1 expression, Fold change (Log 2) vs untreated (ARG1; [5]) [Log 2] | Fold change (Log 2) vs untreated (CPS1) [Log 2] | number of urea cycle genes whose expression was significantly up-regulated [2] | Up-regulated Genes [2] | Fold change (Log 2) vs untreated (OTC [3]) [Log 2] | SLC25A15 expression, Fold change (Log 2) vs untreated (SLC25A15) [Log 2] | Fold change (Log 2) vs untreated (ASS1) [Log 2] | also measured
1 | Yy1 | – | – | – | – | – | – | – | Max fold change in OTC (OTC [1]): 1.71
2 | IRF1 (DNA GAAAGTGAAAGT; siRNA; chemistry not fully specified) | – | – | – | – | – | – | – | Max fold change in OTC (OTC [1]): 1.70
3 | IGF-1: Insulin-like growth factor I; IGF-1R activator | 1.89 | 2.22 | four | CPS1, OTC, ARG1, SLC25A15 | 0.76 | 0.8 | – | Max fold change in OTC (OTC [1]): 1.69
5 | COc1nc(N)nc2c1ncn2[C@@H]1O[C@H](COP(=O)(N[C@@H](C)C(=O)OCC(C)(C)C)Oc2cccc3ccccc23)[C@@H](O)[C@@]1(C)O (stereo partly shown) [bms-986094 (inx-189)] | – | – | – | – | – | 1.18 | – | –
6 | O=C1NC(=O)/C(=C/c2cccc(C(F)(F)F)c2)S1 [SMI-4a] | – | – | – | – | – | – | 0.69 | NAGS expression, Fold change (Log 2) vs untreated (NAGS): 1.25 Log 2
7 | COc1cccc2c1C(=O)c1c(O)c3c(c(O)c1C2=O)C[C@@](O)(/C(CO)=N/NC(=O)CCCCCN1C(=O)C=CC1=O)C[C@@H]3O[C@H]1C[C@H](N)[C@H](O)[C@H](C)O1 [INNO-206 (aldoxorubicin), aldoxorubicin] | – | – | three | NAGS, ASS1, OTC | 0.87 | – | 0.58 | Max Value (OTC/Geo Mean of HKs; DMSO = 1) (OTC [4]): 2.36; NAGS expression, Fold change (Log 2) vs untreated (NAGS; [6]): 1.63 Log 2
8 | CCOC(=O)C1=C(COCCN)NC(C)=C(C(=O)OC)C1c1ccccc1Cl (stereo not shown) [Amlodipine Besylate] | – | – | – | – | – | – | – | IC50 (calcium channel): 1.9 nM; NAGS expression, Fold change (Log 2) vs untreated (NAGS; [6]): 0.73 Log 2
9 | O=C1CCC(N2C(=O)c3ccccc3C2=O)C(=O)N1 (stereo not shown) [Thalidomide] | 1.16 | 1.02 | five | NAGS, CPS1, ALS, OTC, ARG1 | 1.21 | – | – | NAGS expression, Fold change (Log 2) vs untreated (NAGS): 1.1 Log 2; ASL expression, Fold change (Log 2) vs untreated (ASL; [7]): 0.56 Log 2
10 | HGF/SF: Hepatocyte Growth Factor, scatter factor; c-Met activator | 1.51 | 2.02 | four | NAGS, CPS1, OTC, ARG1 | 0.56 | – | – | NAGS expression, Fold change (Log 2) vs untreated (NAGS): 0.56 Log 2
11 | Activin | 2.01 | 2.23 | four | NAGS, CPS1, OTC, ARG1 | 0.94 | – | – | NAGS expression, Fold change (Log 2) vs untreated (NAGS): 0.69 Log 2
12 | EGF: Epidermal Growth Factor; Pan-ErbB activator | 1.46 | 1.93 | three | CPS1, OTC, ARG1 | 0.64 | – | – | –
13 | TNF-α | 1.87 | 2.31 | four | CPS1, ASS1, OTC, ARG1 | 0.87 | – | 0.58 | –
14 | CN(C)[C@@H]1C(O)=C(C(N)=O)C(=O)[C@@]2(O)C(O)=C3C(=O)c4c(O)c(NC(=O)CN5CCCC5)cc(F)c4C[C@H]3C[C@@H]12 [TP-434 (Eravacycline), Eravacycline] | – | – | – | – | – | – | 0.76 | NAGS expression, Fold change (Log 2) vs untreated (NAGS; [6]): 1.5 Log 2
15 | C[C@]12CC[C@H]3[C@@H](CCC4=CC(=O)CC[C@@]43C)[C@@H]1CC[C@@H]2C(=O)CO [Deoxycorticosterone] | 1.37 | 3.79 | four | CPS1, ASS1, ARG1, SLC25A15 | – | – | 0.6 | –
16 | Cc1cc(-c2nc(-c3ccc(OC(F)(F)F)cc3)no2)nn1Cc1ccnc(N2CCN(C3CC3)CC2)c1 [BAY 87-2243] | 1.09 | 1.81 | three | CPS1, ASL, ARG1 | – | – | – | ASL expression, Fold change (Log 2) vs untreated (ASL; [7]): 0.58 Log 2
17 | PDGF | 1.85 | 2.12 | four | CPS1, OTC, ARG1, SLC25A15 | 0.77 | 0.71 | – | –
18 | CNC[C@H](O)c1ccc(O)c(O)c1 [Epinephrine] | – | 4.85 | five | – | – | 1.14 | 1.08 | ARG1 expression, Fold change (Log 2) vs untreated (ARG1): 2.28 Log 2; ASL expression, Fold change (Log 2) vs untreated (ASL): 0.6 Log 2
19 | C[C@]12C[C@H](O)[C@H]3[C@@H](CCC4=CC(=O)CC[C@@]43C)[C@@H]1CC[C@@H]2C(=O)CO [Corticosterone] | – | – | – | – | – | 0.96 | – | –
20 | B1 | 2.06 | 2.35 | three | CPS1, OTC, ARG1 | 0.81 | – | – | –
21 | B2 | 1.79 | 3.46 | five | – | – | 1.09 | 1.34 | NAGS expression, Fold change (Log 2) vs untreated (NAGS): 0.63 Log 2
22 | B3 | 2.07 | 2.6 | four | CPS1, OTC, ARG1, SLC25A15 | 0.92 | 0.7 | – | –
23 | B4 | 2.05 | 2.44 | three | CPS1, OTC, ARG1 | 0.68 | – | – | –
